According to US8609086B2, “Preparation created from an in vitro culture of dedifferentiated, non-elicited cells of the Argania tree, use thereof for treating skin ageing, inflammation and scarring, and production thereof” (Pierre Fabre Dermo-Cosmetique, priority 2010, dated 2013):

Experiment: Anti-oxidizing activity by chemiluminescence (ACL kit), trolox equivalent
Format: biochemical
Conditions: anti-oxidizing power in trolox equivalent, trapping of superoxide anions
Text: This method generates free radicals (superoxide radical O2^o−) by a photochemical signal. The intensity of oxidation is 1000 times greater than that obtained under normal conditions. Detection is done by chemiluminescence and is used to evaluate lipo or hydrosoluble anti-oxidizing extracts or molecules. The results are expressed as an equivalent quantity of vitamin C or Trolox (6-Hydroxy-2,5,7,8-tetramethylchroman-2-carboxylic acid). The sensitivity is of the order of one nanomole.
The analysis of the results depends on two criteria, namely the shape of the curve (integration) and the numerical value given by the software in nanomoles. (Igor Popov and Gudrun Lewin. Methods in enzymology vol 300. 437-456; Maibach I Howard and coll. Journal of Cosmetic Dermatology Vol 7(2) 96-100 (2008)).
The results will be expressed in μg of sample necessary to obtain an activity equivalent to the activity detected for 1 μg of standard (=trolox). (ACL Kit).
The anti-oxidizing activity studied in this test represents the ability to specifically trap superoxide anions by chemiluminescence.

Row | Compound | ACL μg of sample for 1 μg of Trolox
1 | COC1=C(OC)C(=O)C(C/C=C(\C)CC/C=C(\C)CC/C=C(\C)CC/C=C(\C)CC/C=C(\C)CC/C=C(\C)CC/C=C(\C)CC/C=C(\C)CC/C=C(\C)CCC=C(C)C)=C(C)C1=O [Coenzyme 10] | 272 μg of sample for 1 μg of Trolox
2 | Cc1c(C)c2c(c(C)c1O)CCC(C)(C(=O)O)O2 (centres unmarked) [Trolox, 6-Hydroxy-2,5,7,8-tetramethylchroman-2-carboxylic acid] | 1 μg of sample for 1 μg of Trolox
